Several values for one entry are separate records, joined by “and”; a condition that tells them apart may be missing. Equal values may be shown once.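 Following 48 hours of exposure in 96-well plates, responses at five concentrations were used to interpolate endpoints linearly. GI50 = concentration required for 50% inhibition of growth. At the TGI there is no net growth.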
Experiments:
Experiment in all cases: DTP human tumour cell line panel, 48 h
[1] = test system: SK-MEL-5 melanoma
[2] = test system: NCI-H226 lung
[3] = test system: T-47D breast
[4] = test system: OVCAR-8 ovarian
[5] = test system: UACC-257 melanoma
[6] = test system: SK-MEL-28 melanoma
[7] = test system: OVCAR-5 ovarian
[8] = test system: HCT-15 colon
[9] = test system: RXF 393 renal
[10] = test system: K-562 leukemia

Row | Compound | GI50 [1] | TGI [1] | GI50 [2] | TGI [2] | GI50 [3] | TGI [3] | GI50 [4] | TGI [4] | GI50 [5] | TGI [5] | GI50 [6] | TGI [6] | GI50 [7] | TGI [7] | GI50 [8] | TGI [8] | GI50 [9] | TGI [9] | GI50 [10] | TGI [10]
1 | [CH3][Sn]([CH3])([CH3])[O][N+](=O)[O-] | 1.52 µM | 2.97 µM | 3.5 µM | 7.39 µM | 4.09 µM | > 10 µM | 3.6 µM | > 10 µM | 6.81 µM | > 10 µM | > 10 µM | > 10 µM | 6.73 µM | > 10 µM | 2 µM | 4.13 µM | 2.19 µM | 9.73 µM | 2.63 µM | 7.39 µM
2 | O=C(/C=C/OC(=O)c1cccc(Cl)c1)c1ccc(Cl)cc1 | 55.2 µM | > 100 µM | > 79 µM | > 100 µM | > 48.8 µM | > 100 µM | 46.4 µM | > 100 µM | 97.6 µM | > 100 µM | 58.1 µM | > 100 µM | > 100 µM | > 100 µM | 50.7 µM | > 100 µM | > 100 µM | > 100 µM | 34.5 µM | > 100 µM
3 | FC(F)(F)c1cc(Nc2ccc3cc(OCCCN4CCOCC4)ccc3n2)ccc1Cl | 1.64 µM | 3.16 µM | 2.56 µM | 11.7 µM | 2.51 µM | 7.51 µM | 2.87 µM | 10 µM | 1.53 µM | 3.32 µM | 1.59 µM | 3.39 µM | 2.21 µM | 5.84 µM | 1.28 µM | 3.08 µM | 1.39 µM | 3.22 µM | 1.04 µM | 3.83 µM
4 | O=C(O)Cc1cccc2c(=O)c3cccc([N+](=O)[O-])c3oc12 |  | > 100 µM |  | > 100 µM |  | > 100 µM |  | > 100 µM |  | > 100 µM |  | > 100 µM |  | > 100 µM |  | > 100 µM |  | > 100 µM |  | > 100 µM
5 | COc1ccc2c(c1OC(C)=O)C1=CC(=O)CCC13CCNC3C2 (stereo not given) |  | > 100 µM |  | > 100 µM |  | > 100 µM |  | > 100 µM |  | > 100 µM |  | > 100 µM |  | > 100 µM |  | > 100 µM |  | > 100 µM |  | > 100 µM
6 | Cc1ccc(S(=O)(=O)N2CCc3ccc(O)c4c3C2Cc2ccc3c(c2-4)OCO3)cc1 (stereo not given) | 0.486 µM | 2.18 µM | 4.71 µM | 34.3 µM | 0.968 µM | 51 µM | 1.41 µM | 20.7 µM | 0.656 µM | 18.1 µM | 0.668 µM | 18.6 µM | 3.19 µM | 45.8 µM | 0.583 µM | > 35.1 µM | 0.853 µM | 5.96 µM | 0.455 µM | > 100 µM
7 | CCN(Cc1ccc(F)cc1)c1ccc(CO)c(OC)c1 | 11.9 µM | 24.9 µM | 1.15 µM | 2.77 µM | 6.32 µM | 33.4 µM | 19.2 µM | > 64.5 µM | 8.85 µM | 42.7 µM | 20.2 µM | > 100 µM | 2.64 µM | 12.2 µM | 14.6 µM | 41 µM | 9.44 µM | 23.6 µM | 20 µM | > 92 µM
8 | COc1cc2c(cc1C)NC(=O)/C2=C\c1c[nH]c2ccccc12 | 14.9 µM | 30.5 µM | 15.1 µM | 41.6 µM | 13.2 µM | 45.8 µM | 20.3 µM | 67.2 µM | 21.9 µM | 43.8 µM | 21.7 µM | 69.5 µM | 13.5 µM | 42.7 µM | 7.16 µM | 25.4 µM | 7.82 µM | 47.6 µM | 8.07 µM | 51.5 µM
9 | CN(C)c1ccc(N=C2C=CC(=O)c3ccccc32)cc1 | 1.34 µM | 2.72 µM | 18.2 µM | 54 µM | 2.27 µM | 6.01 µM | 3.71 µM | 18.2 µM | 2.21 µM | 5.45 µM | 2.38 µM | 5.73 µM | 12.6 µM | 28.8 µM | 2.36 µM | 17.7 µM | 3.2 µM | 14.5 µM | 2 µM | 4.75 µM
10 | C#Cc1cccc(NC(=O)c2ccc(NC(=O)CCl)cc2)c1 | 24.9 µM | > 82.5 µM | 48.7 µM | > 82.5 µM | 31.2 µM | > 82.5 µM | 22.5 µM | > 82.5 µM | > 82.5 µM | > 82.5 µM | > 82.5 µM | > 82.5 µM | 21.4 µM | > 82.5 µM | 9.95 µM | 25 µM | 23.9 µM | > 82.5 µM | 17.4 µM | > 82.5 µM
11 | COCc1c(-c2ccc(NC(=O)Nc3cc(C(F)(F)F)ccc3F)c(F)c2)c2c(N)ncnn2c1CN1CCOCC1 | 2.49 µM | > 10 µM | 0.0747 µM | 5.25 µM | 2.14 µM | 9.95 µM | 2.66 µM | > 10 µM | 3.43 µM | > 10 µM | 3.02 µM | > 10 µM | 3.32 µM | > 10 µM | 1.74 µM | > 10 µM | 0.236 µM | 1.43 µM | 1.18 µM | > 10 µM
12 | O=C(O)CCC(C(=O)O)N1C(=O)C2C3CCC(C3)C2C1=O (stereo not given) |  | > 100 µM |  | > 100 µM |  | > 100 µM |  | > 100 µM |  | > 100 µM |  | > 100 µM |  | > 100 µM |  | > 100 µM |  | > 100 µM |  | > 100 µM
13 | COc1cccc2c1C(=O)c1c(O)c3c(c(O)c1C2=O)CC(O)(C(=O)CO)CC3OC1CC(N)C(O)C(C)O1 (stereo not given) | 4.76 µg/mL and 15.7 µg/mL | 23.4 µg/mL and 44.8 µg/mL | 1.75 µg/mL and 7.36 µg/mL | 12.6 µg/mL and 28.5 µg/mL | 7.53 µg/mL and 54.8 µg/mL | 73.9 µg/mL and > 150 µg/mL | 19.5 µg/mL and 45.7 µg/mL | 75 µg/mL and > 150 µg/mL | 29.9 µg/mL and 25.1 µg/mL | 75 µg/mL and 113 µg/mL | 33.8 µg/mL and 44.8 µg/mL | 75 µg/mL and > 150 µg/mL | 75 µg/mL and > 150 µg/mL | 75 µg/mL and > 150 µg/mL | 75 µg/mL and > 150 µg/mL | 75 µg/mL and > 150 µg/mL | 13.3 µg/mL and > 150 µg/mL | 75 µg/mL and > 150 µg/mL | 9.4 µg/mL and 25.2 µg/mL | 75 µg/mL and > 150 µg/mL
14 | COc1ccc(OC)c(/C=C/c2nc(SCc3ccccc3)n(-c3ccc(Cl)cc3)n2)c1 | 4.75 µM | 21.9 µM | 27.8 µM | > 100 µM | 11.5 µM | 84.6 µM | 9.36 µM | > 100 µM | > 100 µM | > 100 µM | 28.5 µM | > 100 µM | > 100 µM | > 100 µM | 5.01 µM | > 100 µM | 26.6 µM | > 100 µM | 4.23 µM | > 100 µM
